Series [1] addresses T1, CYP2C9 (Homo sapiens, UniProt P11712). The settings on record: microsomes, 10 min, 50 μM, pH 7.4.
The target in series [2] is T2, CYP2B6 (Homo sapiens, UniProt P20813).
T2 sequence (P20813 1-491): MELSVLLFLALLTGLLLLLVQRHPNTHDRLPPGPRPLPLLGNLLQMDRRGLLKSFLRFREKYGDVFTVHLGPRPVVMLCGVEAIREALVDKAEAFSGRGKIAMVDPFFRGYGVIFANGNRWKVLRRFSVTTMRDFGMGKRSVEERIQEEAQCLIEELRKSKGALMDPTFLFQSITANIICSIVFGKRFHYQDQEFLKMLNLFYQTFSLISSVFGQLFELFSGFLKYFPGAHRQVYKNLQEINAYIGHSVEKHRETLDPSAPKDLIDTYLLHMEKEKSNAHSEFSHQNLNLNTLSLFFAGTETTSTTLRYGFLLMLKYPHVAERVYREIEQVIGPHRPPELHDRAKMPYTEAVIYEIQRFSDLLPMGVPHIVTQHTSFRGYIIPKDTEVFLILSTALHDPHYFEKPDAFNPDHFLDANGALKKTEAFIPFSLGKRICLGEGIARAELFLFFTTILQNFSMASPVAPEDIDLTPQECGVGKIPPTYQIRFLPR
The experiment in a line: Metabolism-dependent inhibition assay (IC50 shift) in pooled HLMs, CYP2B6. Conditions: substrate bupropion; for IC50: CYP2B6, pooled HLMs, 95% CI in parentheses. The procedure:
The experiments for determining metabolism-dependent inhibition were conducted utilizing a non-dilution method. […] The pre-incubation was initiated by the addition of 1 mM NADPH and incubation for 30 min. Subsequently, final incubation was performed with the addition of a substrate (5 μM coumarin or 50 μM bupropion) in the presence of NADPH for 10 min; the total volume of the mixture was 200 μL. […] Mixtures were subjected to centrifugation at 3000× g for 20 min at 4 °C, and the supernatants were analyzed using LC-MS/MS. The experiment was performed using three separate samples.
The CYP-mediated activities in the presence of test substances were expressed as percentages of the corresponding control values.

The target in the next series is CYP2C19 (Homo sapiens, UniProt P33261). The experiment in a line: Direct CYP inhibition assay in pooled HLMs, CYP2C19 (S-mephenytoin).
Series [3] addresses T3, CYP3A4 (Homo sapiens, UniProt P08684). Description: Kinetic parameters of MDZ hydroxylation in pooled HLMs in the presence of (−)-POH. It counts as in vitro ADME. Conditions: 100 μM (−)-POH. As to the method: The supernatants obtained after centrifuging at 3000× g for 20 min at 4 °C were injected into LC-MS/MS for analysis. The experiment was performed using four separate samples.
Kinetic parameters were estimated using GraphPad Prism to plot activities against the log of MDZ concentration in the presence of (–)-POH.

Series [4] deals with T4, CYP2A6 (Homo sapiens, UniProt P11509).
T4 sequence (P11509 1-494): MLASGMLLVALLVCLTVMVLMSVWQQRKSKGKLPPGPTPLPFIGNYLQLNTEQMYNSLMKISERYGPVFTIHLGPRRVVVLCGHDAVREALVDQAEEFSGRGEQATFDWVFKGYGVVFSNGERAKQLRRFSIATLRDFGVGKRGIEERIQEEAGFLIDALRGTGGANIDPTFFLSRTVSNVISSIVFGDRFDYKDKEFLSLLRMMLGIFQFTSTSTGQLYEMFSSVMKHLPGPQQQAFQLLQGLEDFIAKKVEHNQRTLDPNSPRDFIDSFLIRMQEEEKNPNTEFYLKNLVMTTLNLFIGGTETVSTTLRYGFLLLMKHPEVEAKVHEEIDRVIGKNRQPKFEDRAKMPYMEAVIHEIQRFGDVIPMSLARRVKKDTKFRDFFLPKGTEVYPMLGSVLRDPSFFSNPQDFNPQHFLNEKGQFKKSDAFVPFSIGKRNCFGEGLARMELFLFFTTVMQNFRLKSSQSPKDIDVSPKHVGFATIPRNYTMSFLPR
The experiment in a line: Direct CYP inhibition assay in pooled HLMs, CYP2A6 (coumarin). It counts as in vitro ADME. The settings on record: pooled HLMs 0.2 mg/mL; substrate coumarin 5 μM; 10 min; 95% CI in parentheses; read-out: IC50 against CYP2A6.

The target in series [5] is T1, CYP2C9. The experiment in a line: Effect of POH on fimasartan (FMS) metabolism in pooled HLMs: CYP2C9-mediated hydroxy butyl FMS formation. The class given is in vitro ADME. The settings on record: FMS 30 μM, 95% CI in parentheses; for IC50: pooled HLMs, 10 min. As to the method:
(§1) The substrates were applied at a concentration that approximated their Km values. The reactions were preincubated for 5 min before being initiated with the addition of 1 mM NADPH. After 10 min incubation, reactions containing atorvastatin, buspirone, FMS, or nifedipine were terminated by the addition of 200 μL of ice-cold acetonitrile with 100 nM carbamazepine as an internal standard. For terminating reactions with donepezil or tadalafil, 200 μL of ice-cold methanol containing 0.5% (v/v) formic acid and 1 μM carbamazepine as internal standard was added to samples. […] The experiment was performed using three separate samples.

The target of series [6] is T4, CYP2A6. Description: Determination of CYP inhibition mode and Ki in pooled HLMs, CYP2A6-mediated coumarin 7-hydroxylation.
Description: (§2) A 5 min pre-incubation was performed prior to initiating reactions with the addition of 1 mM NADPH. After incubation at 37 °C for 10 min, 200 μL of ice-cold acetonitrile containing 100 nM carbamazepine as an internal standard was added to terminate the reaction. The samples were agitated and centrifuged at 4 °C for 20 min at 3000× g. The supernatants were transferred to a 96-well plate for LC-MS/MS analysis. The experiment was performed using three separate samples.
(§3) Data acquired from the evaluation of enzyme inhibition using various concentrations of substrates and test compounds were fit to different models (competitive, noncompetitive, uncompetitive, or mixed), and inhibition constant (Ki) and goodness of fit values were obtained using GraphPad Prism. The appropriate type of inhibition was selected based on statistical goodness of fit tests including Akaike’s information criterion (AICc) with correction for small sample size and the standard deviation of the residuals (Sy.x).
Series [7] concerns the target T2, CYP2B6. The experiment in a line: Direct CYP inhibition assay in pooled HLMs, CYP2B6 (bupropion).
The next series deals with CYP2E1 (Homo sapiens, UniProt P05181). The experiment in a line: Direct CYP inhibition assay in pooled HLMs, CYP2E1 (chlorzoxazone). The class given is in vitro ADME. The settings on record: pooled HLMs 0.2 mg/mL; substrate chlorzoxazone 50 μM; 10 min; read-out: IC50 against CYP2E1.
Series [8] addresses T3, CYP3A4. Description: Effect of POH on fimasartan (FMS) metabolism in pooled HLMs: CYP3A4-mediated BR-A-557 formation. It counts as in vitro ADME. The settings on record: FMS 30 μM, 100 μM (−)-POH. As to the method:
as §1

In another series the test system is CYP3A4 and CYP2C9. The experiment in a line: Effect of POH on fimasartan (FMS) metabolism in pooled HLMs: FMS S-oxide formation. It counts as in vitro ADME, human. Conditions: FMS 30 μM, (−)-POH 3.2–100 μM. The procedure:
as §1

In series [9] the target is T3, CYP3A4.
Description: To assess the effect of POH on the kinetics of the formation of 1′-hydroxymidazolam (1′-OH-MDZ) and 4-hydroxymidazolam (4-OH-MDZ), 5 μM MDZ was incubated with POH (0–100 μM) in hHOs for 24 h at 37 °C in a CO2 incubator. Samples were incubated in 24-well culture plates, with each well containing a total volume of 0.7 mL. At 2, 4, 6, and 24 h, 70 μL of medium was sampled, and reaction termination was achieved by adding an equal volume of ice-cold acetonitrile containing 100 nM carbamazepine as an internal standard. The supernatants were analyzed using LC-MS/MS after centrifugation at 10,000× g for 10 min at 4 °C. […] Data were normalized for protein concentrations measured using the Pierce™ BCA Protein Assay Kit (Thermo Fisher Scientific, Waltham, MA, USA) following the manufacturer’s instructions. The experiment was performed using four separate samples.
Series [10] addresses T4, CYP2A6. The experiment in a line: biochemical.
Description: as §2, §3

Broadly, the IC50 is the concentration that gives 50% inhibition. As a reminder, the Ki is the equilibrium dissociation constant of an inhibitor or competing ligand from its target. Higher therefore signals weaker binding.

Molecules are shown by their SMILES. Like-named read-outs stand apart in the source and are kept apart here.

T3 sequence (P08684 whole entry): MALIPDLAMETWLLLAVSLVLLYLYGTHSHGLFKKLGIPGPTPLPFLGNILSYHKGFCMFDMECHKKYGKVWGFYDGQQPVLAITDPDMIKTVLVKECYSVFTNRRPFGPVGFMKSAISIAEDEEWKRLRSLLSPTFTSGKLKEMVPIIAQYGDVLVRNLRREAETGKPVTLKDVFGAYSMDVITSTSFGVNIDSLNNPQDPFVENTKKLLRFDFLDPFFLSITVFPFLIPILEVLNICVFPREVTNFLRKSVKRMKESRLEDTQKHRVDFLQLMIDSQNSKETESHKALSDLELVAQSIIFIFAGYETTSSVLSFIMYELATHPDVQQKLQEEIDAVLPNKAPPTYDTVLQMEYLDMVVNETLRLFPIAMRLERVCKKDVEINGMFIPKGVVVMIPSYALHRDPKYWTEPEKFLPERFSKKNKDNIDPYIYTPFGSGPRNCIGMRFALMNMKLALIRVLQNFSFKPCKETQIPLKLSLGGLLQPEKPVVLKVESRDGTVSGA
T1 sequence (P11712 whole entry): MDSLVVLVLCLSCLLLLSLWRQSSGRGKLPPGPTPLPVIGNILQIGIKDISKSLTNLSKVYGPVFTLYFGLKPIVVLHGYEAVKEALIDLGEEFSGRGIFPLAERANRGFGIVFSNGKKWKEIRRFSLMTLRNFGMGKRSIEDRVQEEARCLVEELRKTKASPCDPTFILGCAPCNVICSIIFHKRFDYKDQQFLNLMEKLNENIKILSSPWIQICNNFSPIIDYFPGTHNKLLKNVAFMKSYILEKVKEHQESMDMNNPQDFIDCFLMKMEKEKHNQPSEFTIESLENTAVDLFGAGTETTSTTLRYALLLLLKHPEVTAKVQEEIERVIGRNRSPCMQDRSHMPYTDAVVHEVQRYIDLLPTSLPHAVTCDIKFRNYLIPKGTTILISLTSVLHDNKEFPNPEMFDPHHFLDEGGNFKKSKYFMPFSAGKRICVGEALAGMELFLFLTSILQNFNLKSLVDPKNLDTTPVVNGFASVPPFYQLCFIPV
CYP2C19, sequence (P33261 whole entry): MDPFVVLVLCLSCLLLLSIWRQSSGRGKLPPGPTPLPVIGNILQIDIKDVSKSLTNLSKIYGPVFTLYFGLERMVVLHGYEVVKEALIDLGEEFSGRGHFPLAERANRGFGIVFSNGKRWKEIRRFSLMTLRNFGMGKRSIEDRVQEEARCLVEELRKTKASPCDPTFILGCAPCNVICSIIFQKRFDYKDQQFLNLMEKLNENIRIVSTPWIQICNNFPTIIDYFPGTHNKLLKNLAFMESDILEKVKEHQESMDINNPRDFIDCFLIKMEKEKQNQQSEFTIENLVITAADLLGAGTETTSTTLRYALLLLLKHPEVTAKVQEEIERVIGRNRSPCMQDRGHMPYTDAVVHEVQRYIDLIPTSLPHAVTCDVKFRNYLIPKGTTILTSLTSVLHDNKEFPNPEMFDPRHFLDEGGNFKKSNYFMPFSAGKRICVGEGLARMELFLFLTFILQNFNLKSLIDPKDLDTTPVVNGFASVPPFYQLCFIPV
CYP2E1, sequence (P05181 whole entry): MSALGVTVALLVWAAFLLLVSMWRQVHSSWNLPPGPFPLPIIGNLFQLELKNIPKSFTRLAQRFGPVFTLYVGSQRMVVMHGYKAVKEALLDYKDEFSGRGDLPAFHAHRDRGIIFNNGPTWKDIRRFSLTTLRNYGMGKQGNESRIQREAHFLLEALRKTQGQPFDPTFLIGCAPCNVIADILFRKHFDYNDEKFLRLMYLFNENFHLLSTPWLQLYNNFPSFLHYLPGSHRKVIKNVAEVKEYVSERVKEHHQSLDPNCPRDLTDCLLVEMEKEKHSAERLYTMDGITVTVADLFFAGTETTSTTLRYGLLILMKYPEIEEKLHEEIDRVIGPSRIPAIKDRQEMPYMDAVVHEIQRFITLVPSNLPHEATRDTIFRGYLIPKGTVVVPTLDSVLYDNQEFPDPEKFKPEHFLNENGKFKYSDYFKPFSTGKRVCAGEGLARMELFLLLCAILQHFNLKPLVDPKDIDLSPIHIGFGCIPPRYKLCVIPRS

With `C=C(C)[C@@H]1CC=C(CO)CC1` [(−)-POH, (−)-perillyl alcohol], at CYP2C9 [1], the “CYP2C9 activity, % of the control level” value is given as 64.2%. The IC50 at CYP2B6 [2] (IC50, pre-incubation with NADPH, 30 min pre-incubation with NADPH) was 13.4 µM; at CYP2B6 [2] (IC50, pre-incubation without NADPH, 30 min pre-incubation without NADPH), 13.7 µM; against CYP2C19 it was over 50 µM; at CYP2A6 [4], 15.7 µM; on CYP2C9 [5] (IC50 against formation of 1-hydroxy butyl FMS), 123 µM; at CYP2C9 [5] (IC50 against formation of 4-hydroxy butyl FMS) it was 63 µM. Also, the IC50 at CYP2B6 [7] is 6.99 µM; at CYP2E1 it was over 50 µM. Moreover, the “IC50 fold-shift, CYP2B6” value at CYP2B6 [2] (IC50 without NADPH/IC50 with NADPH) was 1.02. Besides, the figures for the “Increase of Vmax/Km value of MDZ 1′-hydroxylation compared with absence of (−)-POH” value on CYP3A4 [3] and on CYP3A4 [3] (listed as POH) were 2.67 fold and 2.7 fold, respectively. In addition, on CYP2C9 [5] (human, pooled human liver microsomes, pH 7.4, pooled HLMs, read-out: IC50 against formation of 2- or 3-hydroxy butyl FMS), the IC50 at 10 min stood at 62 µM. Besides, the “Type of inhibition, CYP2A6” value at CYP2A6 [6] (best fit by AICc and Sy.x, Dixon plots) was “mixed inhibition model”. Moreover, the “Ki, CYP2A6, uncompetitive model (not selected)” value at CYP2A6 [6] (pooled HLMs, coumarin, 95% CI in parentheses) is recorded as 10.9 (9.16–12.9) μM. Further, on CYP3A4 [8], the “BR-A-557 formation from FMS relative to the control” value turned out to be 1.29 fold. Besides, the “Formation of FMS S-oxide” value in the series on CYP3A4 and CYP2C9 is given as “reduced”. Also, the “Rate of 1′-OH-MDZ formation in hHOs” value on CYP3A4 [9] (2.5 μM) is listed as 1.86 (1.64–2.07) pmol/h/mg protein; on CYP3A4 [9] (10 μM) it was 2.04 (1.88–2.20) pmol/h/mg protein; at CYP3A4 [9] (25 μM), 2.34 (2.18–2.49) pmol/h/mg protein; at CYP3A4 [9] (50 μM) it was 3.21 (2.93–3.48) pmol/h/mg protein. For the same molecule, the “Formation rate of 4-OH-MDZ in hHOs” value on CYP3A4 [9] (100 μM) is given as 0.159 ± 0.016 pmol/h/mg protein. For the same molecule, the “Increase of the rate of 1′-OH-MDZ formation compared with absence of (−)-POH” value at CYP3A4 [9] (100 μM) stood at 2.05 fold. The Ki at CYP2A6 [10] was 6.35 µM.
